Reference: the OPERA property sets (Mansouri et al. 2018)
Values after ≈ are worked out from the molar mass of the structure shown.

settings: not given

Question: With `CC(C)(NC(=O)c1ccccc1)C(N)=O` as the molecule, how does the solubility read?
Answer: 24.2 mM (≈ 5000 µg/mL)

Question: For `CCOC(=O)N(CC)CC`, which solubility is on record?
Answer: 86.1 mM (≈ 12500 µg/mL)

Question: With `O=C(NCCc1c[nH]cn1)c1ccccc1` as the molecule, how does the solubility read?
Answer: 232 mM (≈ 50000 µg/mL)

Question: With `CC(=O)C(=O)Nc1ccccc1` as the molecule, how does the solubility read?
Answer: 42.9 mM (≈ 7000 µg/mL)

Question: Which solubility does the source give for `CC(C)C1OCCO1` here?
Answer: 861 mM (≈ 100000 µg/mL)

Question: With `CC(C)[C@@H]1NC(=O)CNC1=O` as the molecule, how does the solubility read?
Answer: 128 mM (≈ 20000 µg/mL)

Question: Which solubility does the source give for `O=[N+]([O-])CCl` here?
Answer: 524 mM (≈ 50000 µg/mL)

Question: Which solubility does the source give for `O=c1[nH]c(-c2ccccc2)ncc1Br` here?
Answer: 0.332 mM (≈ 83.3 µg/mL)

Question: Which solubility does the source give for `CCN(CC)CCSCCN(CC)CC` here?
Answer: 4.3 mM (≈ 1000 µg/mL)

Question: Which solubility does the source give for `CC(=O)C(=Cc1ccccc1)CC(=O)O` here?
Answer: 24.5 mM (≈ 5000 µg/mL)

Question: Which solubility does the source give for `CCCCCc1ccc(O)cc1O` here?
Answer: 11.1 mM (≈ 2000 µg/mL)

Question: For `NCCCNc1ccccc1`, which solubility is on record?
Answer: 22.2 mM (≈ 3330 µg/mL)

Question: For `NC(CC(=O)O)c1cccc2ccccc12` (stereo not given), which solubility is on record?
Answer: 25.7 mM (≈ 5530 µg/mL)

Question: Which solubility does the source give for `O=c1cc(Br)c2ccccc2o1` here?
Answer: 22.2 mM (≈ 5000 µg/mL)

Question: For `CC(S(C)(=O)=O)S(C)(=O)=O`, which solubility is on record?
Answer: 38.1 mM (≈ 7100 µg/mL)

Question: Which solubility does the source give for `Cc1nc2c(c(=O)[nH]c(=O)n2C)n1C` here?
Answer: 286 mM (≈ 55600 µg/mL)

Question: With `Nc1ccc(CC(=O)c2ccccc2)cc1` as the molecule, how does the solubility read?
Answer: 15.7 mM (≈ 3310 µg/mL)

Question: Which solubility does the source give for `O=C(c1ccccc1I)N(O)c1ccccc1` here?
Answer: 0.295 mM (≈ 100 µg/mL)

Question: For `O=C(O)C=CCCC(=O)O`, which solubility is on record?
Answer: 62.4 mM (≈ 9000 µg/mL)

Question: For `CCN(CC)CN(CC)CC`, which solubility is on record?
Answer: 632 mM (≈ 100000 µg/mL)

Question: Which solubility does the source give for `CCNC(CC)C(=O)O` (stereo not given) here?
Answer: 381 mM (≈ 50000 µg/mL)

Question: Which solubility does the source give for `O=S(=O)(O)c1ccc(/N=N/c2c(O)ccc3ccccc23)c2ccccc12` here?
Answer: 68.7 mM (≈ 26000 µg/mL)

Question: For `CCCCCSS(=O)CCCCC` (stereo not given), which solubility is on record?
Answer: 0.674 mM (≈ 150 µg/mL)

Question: For `O=C(O)CSSSSCC(=O)O`, which solubility is on record?
Answer: 35.3 mM (≈ 8700 µg/mL)

Question: For `CN1C(=O)C(N)C(=S)N(C)C1=O` (stereo not given), which solubility is on record?
Answer: 76.4 mM (≈ 14300 µg/mL)

Question: Which solubility does the source give for `O=C1Cc2c(ccc3ccccc23)O1` here?
Answer: 1.96 mM (≈ 361 µg/mL)

Question: For `CC=Cc1ccc(OCC(=O)O)c(OC)c1`, which solubility is on record?
Answer: 26.1 mM (≈ 5810 µg/mL)

Question: With `NC(CS(=O)(=O)c1ccc(Cl)cc1)C(=O)O` (stereo not given) as the molecule, how does the solubility read?
Answer: 2.93 mM (≈ 774 µg/mL)

Question: For `CCCSS(=O)CCC` (stereo not given), which solubility is on record?
Answer: 120 mM (≈ 20000 µg/mL)

Question: Which solubility does the source give for `C[Si](C)(C)CN` here?
Answer: 17.3 mM (≈ 1790 µg/mL)

Question: With `CCOC(OCC)C(Cl)(Cl)Cl` as the molecule, how does the solubility read?
Answer: 22.6 mM (≈ 5000 µg/mL)

Question: With `CCSS(=O)CC` (stereo not given) as the molecule, how does the solubility read?
Answer: 796 mM (≈ 110000 µg/mL)

Question: With `Oc1ccc(-c2ccccc2)cc1O` as the molecule, how does the solubility read?
Answer: 8.59 mM (≈ 1600 µg/mL)

Question: With `CCCOC(=O)C(C)(C)O` as the molecule, how does the solubility read?
Answer: 684 mM (≈ 100000 µg/mL)

Question: With `C[C@H](NC(=O)c1ccccc1)C(=O)O` (racemic) as the molecule, how does the solubility read?
Answer: 20.7 mM (≈ 4000 µg/mL)

Question: With `Cn1cnc2nc(Cl)nc(NN)c21` as the molecule, how does the solubility read?
Answer: 72 mM (≈ 14300 µg/mL)

Question: For `CCS(=O)(=O)CI`, which solubility is on record?
Answer: 107 mM (≈ 25000 µg/mL)

Question: For `O=C(Cc1ccccc1)c1ccc(O)cc1`, which solubility is on record?
Answer: 31.6 mM (≈ 6700 µg/mL)

same assay, conditions: 20 °C

Question: With `c1ccc2c3c(ccc2c1)Nc1ccc2ccccc2c1S3` as the molecule, how does the solubility read?
Answer: 0.000132 mM (≈ 0.0396 µg/mL)

Question: Which solubility does the source give for `Cc1ccc(C(=O)O)o1` here?
Answer: 150 mM (≈ 18900 µg/mL)

Question: For `CCC1(CC)C(=O)NC(=O)N=C1N`, which solubility is on record?
Answer: 40.1 mM (≈ 7350 µg/mL)

Question: With `O=CC(=O)Cc1ccccc1` as the molecule, how does the solubility read?
Answer: 6.75 mM (≈ 1000 µg/mL)

Question: Which solubility does the source give for `CC(C)(NC(N)=O)C(=O)O` here?
Answer: 68.4 mM (≈ 10000 µg/mL)

Question: With `O=C(O)CCP(=O)(O)O` as the molecule, how does the solubility read?
Answer: 3170 mM (≈ 488000 µg/mL)

Question: For `Nc1ncnc2c1ncn2[C@@H]1O[C@H](COP(=O)(O)O)[C@@H](O)[C@H]1O`, which solubility is on record?
Answer: 28.8 mM (≈ 10000 µg/mL)

Question: With `CC(C#N)(CCC(=O)O)/N=N/C(C)(C#N)CCC(=O)O` (stereo not given) as the molecule, how does the solubility read?
Answer: 9.81 mM (≈ 2750 µg/mL)

Question: With `Cc1cnnc2c(O)cccc12` as the molecule, how does the solubility read?
Answer: 2.1 mM (≈ 336 µg/mL)

Question: For `Cc1snnc1C(=O)O`, which solubility is on record?
Answer: 347 mM (≈ 50000 µg/mL)

Question: For `N[C@@H](C(=O)O)[C@@H](O)[C@H](O)[C@H](O)CO`, which solubility is on record?
Answer: 138 mM (≈ 27000 µg/mL)

Question: For `O=C(OCCO)c1ccccc1O`, which solubility is on record?
Answer: 69.7 mM (≈ 12700 µg/mL)

Question: With `CC(=O)Nc1ccc(/C=N/NC(N)=S)cc1` as the molecule, how does the solubility read?
Answer: 0.372 mM (≈ 88 µg/mL)

Question: For `O=C(O)C(I)=C(Br)I`, which solubility is on record?
Answer: 51.4 mM (≈ 20700 µg/mL)

Question: Which solubility does the source give for `S=C=NCCc1ccccc1` here?
Answer: 0.674 mM (≈ 110 µg/mL)

Question: With `OCc1ccc(I)cc1` as the molecule, how does the solubility read?
Answer: 1.79 mM (≈ 420 µg/mL)

Question: Which solubility does the source give for `NC[C@H](O)C(=O)O` here?
Answer: 148 mM (≈ 15500 µg/mL)

Question: For `OCc1cccc(O)c1`, which solubility is on record?
Answer: 540 mM (≈ 67000 µg/mL)

Question: For `CCOC(=O)c1c(C)oc(C)c(C(=O)OCC)c1=O`, which solubility is on record?
Answer: 29.8 mM (≈ 8000 µg/mL)

Question: For `COc1ccc2c(c1)Sc1ccc(Cl)cc1N2`, which solubility is on record?
Answer: 0.0105 mM (≈ 2.77 µg/mL)

Question: For `O=CCCCCCCCC(=O)O`, which solubility is on record?
Answer: 110 mM (≈ 19000 µg/mL)

Question: For `COc1ncnc2nccnc12`, which solubility is on record?
Answer: 77.1 mM (≈ 12500 µg/mL)

Question: Which solubility does the source give for `O=C(NCCO)C(=O)NCCO` here?
Answer: 772 mM (≈ 136000 µg/mL)

Question: Which solubility does the source give for `N#Cc1ccc(C(=O)O)cc1` here?
Answer: 8.16 mM (≈ 1200 µg/mL)

Question: For `COCc1ccc(C=O)o1`, which solubility is on record?
Answer: 317 mM (≈ 44400 µg/mL)

Question: Which solubility does the source give for `NC(=O)C(Br)(Br)Br` here?
Answer: 54.1 mM (≈ 16000 µg/mL)

Question: With `O=C(O)c1ccccc1CO` as the molecule, how does the solubility read?
Answer: 28.1 mM (≈ 4280 µg/mL)

Question: With `CCc1nc2cnc(O)nc2nc1CC` as the molecule, how does the solubility read?
Answer: 5.44 mM (≈ 1110 µg/mL)

Question: For `O=c1nc[nH]c2nc(-c3ccccc3)c(-c3ccccc3)nc12`, which solubility is on record?
Answer: 0.666 mM (≈ 200 µg/mL)

Question: With `COc1cc(C(C)=O)ccc1O` as the molecule, how does the solubility read?
Answer: 30.1 mM (≈ 5000 µg/mL)

Question: With `CC(C)(O)CC(C)(O)c1cccc2ccccc12` (stereo not given) as the molecule, how does the solubility read?
Answer: 0.573 mM (≈ 140 µg/mL)

Question: For `CC(=O)Nc1ccc(S(=O)(=O)Nc2ccccn2)cc1`, which solubility is on record?
Answer: 0.192 mM (≈ 56 µg/mL)

Question: Which solubility does the source give for `O=Cc1ccc(Br)o1` here?
Answer: 28.6 mM (≈ 5000 µg/mL)

Question: With `CC(=O)C1CC(CC(=O)O)C1(C)C` (stereo not given) as the molecule, how does the solubility read?
Answer: 266 mM (≈ 49000 µg/mL)

Question: With `O=C1C=Cc2ccccc2C1=NO` as the molecule, how does the solubility read?
Answer: 1.16 mM (≈ 200 µg/mL)

Question: For `Cc1cc(C)nc(C(N)=O)n1`, which solubility is on record?
Answer: 1320 mM (≈ 200000 µg/mL)

Question: For `O=c1nccc[nH]1`, which solubility is on record?
Answer: 4730 mM (≈ 455000 µg/mL)

Question: Which solubility does the source give for `CC1(c2ccccc2)C(=O)NC(=O)NC1=O` here?
Answer: 3.48 mM (≈ 760 µg/mL)

Question: Which solubility does the source give for `CC(=O)Nc1ccc(Br)cc1C` here?
Answer: 17.5 mM (≈ 4000 µg/mL)

Question: Which solubility does the source give for `Cn1c(=O)ncc2nccnc21` here?
Answer: 42.5 mM (≈ 6900 µg/mL)

Question: Which solubility does the source give for `c1ccc2c(c1)Nc1ccc3ccccc3c1S2` here?
Answer: 0.000267 mM (≈ 0.0667 µg/mL)

Question: With `CC(C)COC(=O)c1c(C(=O)O)cccc1[N+](=O)[O-]` as the molecule, how does the solubility read?
Answer: 0.898 mM (≈ 240 µg/mL)

Question: Which solubility does the source give for `CCOCC(N)C(=O)O` (stereo not given) here?
Answer: 3340 mM (≈ 445000 µg/mL)

Question: With `Cc1cc(C(O)(c2ccc(N)cc2)c2ccc(N)cc2)ccc1N` as the molecule, how does the solubility read?
Answer: 0.939 mM (≈ 300 µg/mL)

Question: With `CCC(C)S` (stereo not given) as the molecule, how does the solubility read?
Answer: 14.6 mM (≈ 1320 µg/mL)

Question: For `CC(=O)C(=O)c1ccccc1`, which solubility is on record?
Answer: 17.5 mM (≈ 2600 µg/mL)

same assay, conditions: 21 °C

Question: With `COc1ccc2[nH]c(=O)cc(C(=O)O)c2c1` as the molecule, how does the solubility read?
Answer: 0.776 mM (≈ 170 µg/mL)
